What all share (format): biochemical
The target in one assay is T1, recombinant PRL-3 (Homo sapiens, UniProt O75365).
T1 construct: 6xHis (N, cleaved yes); made in house; host or cells: E. coli One Shot BL21 Star
The assay can be described thus: In vitro phosphatase assay (DiFMUP hydrolysis), PRL-3. Further: test concentration or dose not given here.

A further assay deals with T2, recombinant PRL-2 (Homo sapiens, UniProt Q12974).
T2 construct: 6xHis (N, cleaved yes); made in house; host or cells: E. coli One Shot BL21 Star
T2 sequence (Q12974 1-167): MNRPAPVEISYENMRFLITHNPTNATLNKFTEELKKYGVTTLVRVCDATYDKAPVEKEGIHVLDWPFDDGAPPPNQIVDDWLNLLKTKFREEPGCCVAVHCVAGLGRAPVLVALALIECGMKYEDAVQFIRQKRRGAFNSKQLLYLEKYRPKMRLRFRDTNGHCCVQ
Nature of the assay: In vitro phosphatase assay (DiFMUP hydrolysis), PRL-2.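 Further: PRL-2 activity read as DiFMUP hydrolysis after 20 min at room temperature with drug, enzyme first pre-reduced at 4 °C for 20 min.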

The target in another assay is T3, recombinant PRL-1 (Homo sapiens, UniProt Q93096).
T3 construct: 6xHis (N, cleaved yes); made in house; host or cells: E. coli One Shot BL21 Star
T3 sequence (Q93096 1-173): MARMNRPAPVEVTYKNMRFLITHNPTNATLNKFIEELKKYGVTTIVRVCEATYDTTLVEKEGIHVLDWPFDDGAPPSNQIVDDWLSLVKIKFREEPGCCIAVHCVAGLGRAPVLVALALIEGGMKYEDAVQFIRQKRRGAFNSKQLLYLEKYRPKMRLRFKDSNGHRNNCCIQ
Nature of the assay: In vitro phosphatase assay (DiFMUP hydrolysis), PRL-1. Further: test concentration or dose not given here.

Where [1] appears, read: FDA-approved drug screen, compared to DMSO.

Structures can show the parent of a compound that is named as a salt. Where two headings read alike, the source gives them in different places.

T1 sequence (O75365 whole entry): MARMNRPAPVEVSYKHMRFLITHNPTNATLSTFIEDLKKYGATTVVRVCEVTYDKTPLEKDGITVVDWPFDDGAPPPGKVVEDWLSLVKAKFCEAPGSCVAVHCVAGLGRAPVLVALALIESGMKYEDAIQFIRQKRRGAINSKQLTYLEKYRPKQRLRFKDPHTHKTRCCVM

Turning to `CC(C)C[C@H](NC(=O)CNC(=O)c1cc(Cl)ccc1Cl)B(O)O` [MLN2238], the “% Phosphatase Activity (compared to DMSO) PRL-3” value on recombinant PRL-3 (setting [1]) was 86%. The “% Phosphatase Activity (compared to DMSO) PRL-2” value at recombinant PRL-2 (setting [1]) was 105%. For the same compound, the “% Phosphatase Activity (compared to DMSO) PRL-1” value at recombinant PRL-1 (setting [1]) is recorded as 102%.

Turning to `CCCNS(=O)(=O)Nc1ncnc(OCCOc2ncc(Br)cn2)c1-c1ccc(Br)cc1` [Macitentan], the “% Phosphatase Activity (compared to DMSO) PRL-3” value at recombinant PRL-3 (setting [1]) is given as 85%. The “% Phosphatase Activity (compared to DMSO) PRL-2” value on recombinant PRL-2 (setting [1]) was determined as 75%. In addition, the “% Phosphatase Activity (compared to DMSO) PRL-1” value on recombinant PRL-1 (setting [1]) was found to be 93%.

As for `CC(C)OC(=O)C(C(=O)OC(C)C)=C1SC=CS1` [Malotilate], the “% Phosphatase Activity (compared to DMSO) PRL-3” value at recombinant PRL-3 (setting [1]) is given as 61%. For the same compound, on recombinant PRL-2 (setting [1]), the “% Phosphatase Activity (compared to DMSO) PRL-2” value was 58%. Besides, on recombinant PRL-1 (setting [1]), the “% Phosphatase Activity (compared to DMSO) PRL-1” value was determined as 70%.

In the case of `COC(=O)C1=C(C)NC(C)=C(C(=O)OCCN2CCN(C(c3ccccc3)c3ccccc3)CC2)C1c1cccc([N+](=O)[O-])c1.Cl.Cl` (stereo not drawn) [Manidipine 2HCl], the “% Phosphatase Activity (compared to DMSO) PRL-3” value at recombinant PRL-3 (setting [1]) is reported as 82%. Also, the “% Phosphatase Activity (compared to DMSO) PRL-2” value on recombinant PRL-2 (setting [1]) is on record as 87%. For the same compound, the “% Phosphatase Activity (compared to DMSO) PRL-1” value at recombinant PRL-1 (setting [1]) is given as 97%.

Regarding `CNCCCC12CCC(c3ccccc31)c1ccccc12` [Maprotiline HCl], the “% Phosphatase Activity (compared to DMSO) PRL-3” value at recombinant PRL-3 was 87%. In addition, the “% Phosphatase Activity (compared to DMSO) PRL-2” value on recombinant PRL-2 came to 116%. Besides, the “% Phosphatase Activity (compared to DMSO) PRL-1” value on recombinant PRL-1 was found to be 127%.

`CN1CCN(c2c(F)cc3c(=O)c(C(=O)O)cn4c3c2OCN4C)CC1` [Marbofloxacin]: the “% Phosphatase Activity (compared to DMSO) PRL-3” value at recombinant PRL-3 (setting [1]) came out at 180%. The “% Phosphatase Activity (compared to DMSO) PRL-2” value on recombinant PRL-2 (setting [1]) is reported as 386%. The “% Phosphatase Activity (compared to DMSO) PRL-1” value on recombinant PRL-1 (setting [1]) is recorded as 345%.

`CNC(=O)[C@@H](NC(=O)[C@H](CC(C)C)[C@H](O)C(=O)NO)C(C)(C)C` [Marimastat(BB-2516)]: the “% Phosphatase Activity (compared to DMSO) PRL-3” value at recombinant PRL-3 (setting [1]) stood at 91%. Further, the “% Phosphatase Activity (compared to DMSO) PRL-2” value at recombinant PRL-2 (setting [1]) is listed as 77%. Moreover, at recombinant PRL-1 (setting [1]), the “% Phosphatase Activity (compared to DMSO) PRL-1” value came to 85%.

As to `Cc1ccc(NC(=O)c2ccc(CN3CCN(C)CC3)cc2)cc1Nc1nc(-c2cccnc2)cs1` [Masitinib (AB1010)], on recombinant PRL-3 (setting [1]), the “% Phosphatase Activity (compared to DMSO) PRL-3” value came out at 92%. In addition, on recombinant PRL-2 (setting [1]), the “% Phosphatase Activity (compared to DMSO) PRL-2” value is recorded as 117%. At recombinant PRL-1 (setting [1]), the “% Phosphatase Activity (compared to DMSO) PRL-1” value came out at 115%.

For the compound `COC(=O)Nc1nc2ccc(C(=O)c3ccccc3)cc2[nH]1` [Mebendazole], on recombinant PRL-3 (setting [1]), the “% Phosphatase Activity (compared to DMSO) PRL-3” value is recorded as 79%. Further, the “% Phosphatase Activity (compared to DMSO) PRL-2” value at recombinant PRL-2 (setting [1]) amounted to 83%. Also, the “% Phosphatase Activity (compared to DMSO) PRL-1” value on recombinant PRL-1 (setting [1]) is recorded as 90%.

In the case of `CCOC(=O)c1c(C)n(C)c2ccc(O)cc12` [Mecarbinate], the “% Phosphatase Activity (compared to DMSO) PRL-3” value on recombinant PRL-3 (setting [1]) was 77%. Besides, the “% Phosphatase Activity (compared to DMSO) PRL-2” value at recombinant PRL-2 (setting [1]) is recorded as 100%. Also, the “% Phosphatase Activity (compared to DMSO) PRL-1” value at recombinant PRL-1 (setting [1]) was 108%.

For the compound `Cc1cccc(CN2CCN(C(c3ccccc3)c3ccc(Cl)cc3)CC2)c1.Cl.Cl` (stereo not drawn) [Meclizine 2HCl], the “% Phosphatase Activity (compared to DMSO) PRL-3” value on recombinant PRL-3 (setting [1]) came to 96%. Further, the “% Phosphatase Activity (compared to DMSO) PRL-2” value on recombinant PRL-2 (setting [1]) was determined as 112%. The “% Phosphatase Activity (compared to DMSO) PRL-1” value on recombinant PRL-1 (setting [1]) turned out to be 103%.

Regarding `Cc1ccc(Cl)c(Nc2ccccc2C(=O)O)c1Cl` [Meclofenamate Sodium], the “% Phosphatase Activity (compared to DMSO) PRL-3” value at recombinant PRL-3 (setting [1]) worked out at 81%. The “% Phosphatase Activity (compared to DMSO) PRL-2” value at recombinant PRL-2 (setting [1]) came to 104%. The “% Phosphatase Activity (compared to DMSO) PRL-1” value at recombinant PRL-1 (setting [1]) is on record as 99%.

For the compound `Cc1cccc(C(C)c2cnc[nH]2)c1C` (stereo not drawn) [Medetomidine HCl], the “% Phosphatase Activity (compared to DMSO) PRL-3” value on recombinant PRL-3 is 99%. Besides, the “% Phosphatase Activity (compared to DMSO) PRL-2” value at recombinant PRL-2 worked out at 113%. In addition, the “% Phosphatase Activity (compared to DMSO) PRL-1” value on recombinant PRL-1 came out at 109%.

`CC(=O)O[C@]1(C(C)=O)CC[C@H]2[C@@H]3C[C@H](C)C4=CC(=O)CC[C@]4(C)[C@H]3CC[C@@]21C` [Medroxyprogesterone acetate]: the “% Phosphatase Activity (compared to DMSO) PRL-3” value on recombinant PRL-3 (setting [1]) is recorded as 85%. Also, the “% Phosphatase Activity (compared to DMSO) PRL-2” value at recombinant PRL-2 (setting [1]) turned out to be 89%. In addition, the “% Phosphatase Activity (compared to DMSO) PRL-1” value on recombinant PRL-1 (setting [1]) is 89%.

As to `Cc1cccc(Nc2ccccc2C(=O)O)c1C` [Mefenamic Acid], the “% Phosphatase Activity (compared to DMSO) PRL-3” value at recombinant PRL-3 (setting [1]) was found to be 82%. The “% Phosphatase Activity (compared to DMSO) PRL-2” value at recombinant PRL-2 (setting [1]) worked out at 107%. In addition, the “% Phosphatase Activity (compared to DMSO) PRL-1” value at recombinant PRL-1 (setting [1]) worked out at 98%.

Consider `OC(c1cc(C(F)(F)F)nc2c(C(F)(F)F)cccc12)C1CCCCN1` (stereo not drawn) [Mefloquine HCl], for which the “% Phosphatase Activity (compared to DMSO) PRL-3” value on recombinant PRL-3 (setting [1]) turned out to be 109%. Also, the “% Phosphatase Activity (compared to DMSO) PRL-2” value at recombinant PRL-2 (setting [1]) is reported as 106%. The “% Phosphatase Activity (compared to DMSO) PRL-1” value at recombinant PRL-1 (setting [1]) stood at 100%.

Turning to `CC(=O)O[C@]1(C(C)=O)CC[C@H]2[C@@H]3C=C(C)C4=CC(=O)CC[C@]4(C)[C@H]3CC[C@@]21C` [Megestrol Acetate], the “% Phosphatase Activity (compared to DMSO) PRL-3” value at recombinant PRL-3 (setting [1]) came to 67%. Further, the “% Phosphatase Activity (compared to DMSO) PRL-2” value at recombinant PRL-2 (setting [1]) is recorded as 92%. For the same compound, the “% Phosphatase Activity (compared to DMSO) PRL-1” value at recombinant PRL-1 (setting [1]) was 86%.

As for `CNC[C@H](O)[C@@H](O)[C@H](O)[C@H](O)CO` [Meglumine], on recombinant PRL-3 (setting [1]), the “% Phosphatase Activity (compared to DMSO) PRL-3” value is reported as 110%. Besides, the “% Phosphatase Activity (compared to DMSO) PRL-2” value on recombinant PRL-2 (setting [1]) came out at 125%. Moreover, the “% Phosphatase Activity (compared to DMSO) PRL-1” value at recombinant PRL-1 (setting [1]) turned out to be 105%.
